Test system: HBV viral load (viral production from HepAD38 cells)
Test: Activity of test compounds on viral production from HepAD38 cells (viral load by qPCR of HBV core sequence)
Type: cell-based
Details: Hepatitis B virus, HePAD38, 120 h, viral load lowering, 5 days, qPCR of supernatant, read-out: VL HepAD38 EC50 range
Procedure, shortened: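 HepAD38 cells seeded at 50,000/well in tetracycline-free medium with 2% FBS, treated 5 days at 37 °C with compounds from 10 μM top concentration. Supernatant HBV DNA quantified by TaqMan qPCR of core sequence against HBV DNA standards, relative to DMSO wells; viability by CellTiter-Glo; EC50/CC50 by four-parameter logistic fit.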

First: O=C(Nc1ccc(F)c(Cl)c1)c1scnc1C1CC2CC(O)CC2C1 (stereo not shown) [Example 39, N-(3-Chloro-4-fluorophenyl)-4-(5-hydroxyoctahydropentalen-2-yl)thiazole-5-carboxamide]
Second: O=C(Nc1ccc(F)c(Cl)c1)c1ocnc1C1CC2CC(O)CC2C1 (stereo not shown) [Example 36, N-(3-Chloro-4-fluorophenyl)-4-(5-hydroxyoctahydropentalen-2-yl)oxazole-5-carboxamide]
The EC50 of the first is lower: under 0.01 µM for the first, 0.05 to 0.5 µM for the second. The first is the more potent here.

First: Cc1nc(C2CC3CC(=O)CC3C2)c(C(=O)Nc2ccc(F)c(Cl)c2)n1C (stereo not shown) [Example 23, N-(3-Chloro-4-fluorophenyl)-1,2-dimethyl-4-(5-oxooctahydropentalen-2-yl)-1H-imidazole-5-carboxamide]
Second: Cn1c(C#N)nc(C2CC3CC(O)CC3C2)c1C(=O)Nc1ccc(F)c(Cl)c1 (stereo not shown) [Example 42, 5-[-5-Hydroxy-1,2,3,3a,4,5,6,6a-octahydropentalen-2-yl]-N-(3-chloro-4-fluorophenyl)-2-cyano-3-methyl-4-imidazolecarboxamide]
The EC50 of the first is lower: under 0.01 µM for the first, 0.01 to 0.05 µM for the second. The first is the more potent here.

`Cn1cc(CC2(O)CC3CC(c4ncn(C)c4C(=O)Nc4ccc(F)c(Cl)c4)CC3C2)cn1` (stereo not shown) [Example 130, N-(3-chloro-4-fluorophenyl)-4-(5-hydroxy-5-((1-methyl-1H-pyrazol-4-yl)methyl)octahydropentalen-2-yl)-1-methyl-1H-imidazole-5-carboxamide] and `Cn1cnc(C2CC3CC(O)(CO)CC3C2)c1C(=O)Nc1ccc(F)c(Cl)c1` (single isomer, unassigned) [Example 19, N-(3-Chloro-4-fluorophenyl)-4-(5-hydroxy-5-(hydroxymethyl)octahydro-pentalen-2-yl)-1-methyl-1H-imidazole-5-carboxamide] cannot be ordered by EC50: under 0.01 µM for the first, under 0.01 µM for the second.

`CCn1nc(C(F)(F)F)cc1C1(O)CC2CC(c3ncn(C)c3C(=O)Nc3ccc(F)c(Cl)c3)CC2C1` (stereo not shown) [Example 173, N-(3-Chloro-4-fluorophenyl)-4-(5-(1-ethyl-3-(trifluoromethyl)-1H-pyrazol-5-yl)-5-hydroxyoctahydropentalen-2-yl)-1-methyl-1H-imidazole-5-carboxamide] and `Cn1cnc(C2CC3CC(O)(c4cc(C(F)(F)F)nn4C)CC3C2)c1C(=O)Nc1ccc(F)c(Cl)c1` (single isomer, unassigned) [Example 72, N-(3-Chloro-4-fluorophenyl)-4-(5-hydroxy-5-(1-methyl-3-(trifluoromethyl)-1H-pyrazol-5-yl)octahydropentalen-2-yl)-1-methyl-1H-imidazole-5-carboxamide] cannot be ordered by EC50: under 0.01 µM for the first, under 0.01 µM for the second.

Compared with `CN(Cc1ccccc1)c1nc(C2CC3CC(O)CC3C2)c(C(=O)Nc2ccc(F)c(Cl)c2)n1C` (stereo not shown) [Example 48, 2-(benzyl(methyl)amino)-N-(3-chloro-4-fluorophenyl)-4-(5-hydroxyoctahydropentalen-2-yl)-1-methyl-1H-imidazole-5-carboxamide], `O=C(Nc1ccc(F)c(Cl)c1)c1c(C2CC3CC(O)CC3C2)nc2n1CCC2` (single isomer, unassigned) [Example 32, N-(3-Chloro-4-fluorophenyl)-2-(5-hydroxyoctahydropentalen-2-yl)-6,7-dihydro-5H-pyrrolo[1,2-a]imidazole-3-carboxamide] is lower in EC50: 0.05 to 0.5 µM for the first, 0.01 to 0.05 µM for the second. The second is the more potent here.

`CCn1nc(C(F)F)cc1C1(O)CC2CC(c3ncn(C)c3C(=O)Nc3ccc(F)c(Cl)c3)CC2C1` (stereo not shown) [Example 152, N-(3-Chloro-4-fluorophenyl)-4-(5-(3-(difluoromethyl)-1-ethyl-1H-pyrazol-5-yl)-5-hydroxyoctahydropentalen-2-yl)-1-methyl-1H-imidazole-5-carboxamide] and `CCn1cc(C2(O)CC3CC(c4ncn(C)c4C(=O)Nc4ccc(F)c(Cl)c4)CC3C2)c(C(F)F)n1` (stereo not shown) [Example 162, N-(3-Chloro-4-fluorophenyl)-4-(5-(3-(difluoromethyl)-1-ethyl-1H-pyrazol-4-yl)-5-hydroxyoctahydropentalen-2-yl)-1-methyl-1H-imidazole-5-carboxamide] cannot be ordered by EC50: under 0.01 µM for the first, under 0.01 µM for the second.

`Cn1cc(F)c(C2(O)CC3CC(c4ncn(C)c4C(=O)Nc4ccc(F)c(Cl)c4)CC3C2)n1` (stereo not shown) [Example 136, N-(3-chloro-4-fluorophenyl)-4-(5-(4-fluoro-1-methyl-1H-pyrazol-3-yl)-5-hydroxyoctahydropentalen-2-yl)-1-methyl-1H-imidazole-5-carboxamide] and `Cn1cc(C2(O)CC3CC(c4ncn(C)c4C(=O)Nc4ccc(F)c(Cl)c4)CC3C2)c(Br)n1` (stereo not shown) [Example 182, 4-(5-(3-Bromo-1-methyl-1H-pyrazol-4-yl)-5-hydroxyoctahydropentalen-2-yl)-N-(3-chloro-4-fluorophenyl)-1-methyl-1H-imidazole-5-carboxamide] cannot be ordered by EC50: under 0.01 µM for the first, under 0.01 µM for the second.

`CC(C)Cn1nc(OCC(C)(C)O)cc1C1(O)CC2CC(c3ncn(C)c3C(=O)Nc3ccc(F)c(Cl)c3)CC2C1` (stereo not shown) [Example 221, N-(3-Chloro-4-fluorophenyl)-4-(5-hydroxy-5-(3-(2-hydroxy-2-methylpropoxy)-1-isobutyl-1H-pyrazol-5-yl)octahydropentalen-2-yl)-1-methyl-1H-imidazole-5-carboxamide] and `Cn1cnc(C2CC3CC(O)(c4cc(OCC(O)CO)nn4C)CC3C2)c1C(=O)Nc1ccc(F)c(Cl)c1` (stereo not shown) [Example 204, N-(3-Chloro-4-fluorophenyl)-4-(5-(3-(2,3-dihydroxypropoxy)-1-methyl-1H-pyrazol-5-yl)-5-hydroxyoctahydropentalen-2-yl)-1-methyl-1H-imidazole-5-carboxamide] cannot be ordered by EC50: under 0.01 µM for the first, under 0.01 µM for the second.

`Cn1cnc(C2CC3CC(CC(N)=O)CC3C2)c1C(=O)Nc1ccc(F)c(Cl)c1` (stereo not shown) [Example 17, 4-(5-(2-Amino-2-oxoethyl)octahydropentalen-2-yl)-N-(3-chloro-4-fluorophenyl)-1-methyl-1H-imidazole-5-carboxamide] and `Cn1cnc(C2CC3CC(O)(Cn4cccn4)CC3C2)c1C(=O)Nc1ccc(F)c(Cl)c1` (single isomer, unassigned) [Example 128, 4-(5-((1H-pyrazol-1-yl)methyl)-5-hydroxyoctahydropentalen-2-yl)-N-(3-chloro-4-fluorophenyl)-1-methyl-1H-imidazole-5-carboxamide] cannot be ordered by EC50: under 0.01 µM for the first, under 0.01 µM for the second.

`Cn1cnc(C2(O)CC3CC(c4ncn(C)c4C(=O)Nc4ccc(F)c(Cl)c4)CC3C2)c1` (single isomer, unassigned) [Example 4, N-(3-Chloro-4-fluorophenyl)-4-(5-hydroxy-5-(1-methyl-1H-imidazol-4-yl)octahydropentalen-2-yl)-1-methyl-1H-imidazole-5-carboxamide] and `CC(O)c1nn(C)cc1C1(O)CC2CC(c3ncn(C)c3C(=O)Nc3ccc(F)c(Cl)c3)CC2C1` (single isomer, unassigned) [Example 188, N-(3-Chloro-4-fluorophenyl)-4-(5-hydroxy-5-(3-(1-hydroxyethyl)-1-methyl-1H-pyrazol-4-yl)octahydropentalen-2-yl)-1-methyl-1H-imidazole-5-carboxamide] cannot be ordered by EC50: under 0.01 µM for the first, under 0.01 µM for the second.

`CCn1nc(NCC(C)(C)O)c(F)c1C1(O)CC2CC(c3ncn(C)c3C(=O)Nc3ccc(F)c(Cl)c3)CC2C1` (stereo not shown) [Example 215, N-(3-Chloro-4-fluorophenyl)-4-(5-(1-ethyl-4-fluoro-3-((2-hydroxy-2-methylpropyl)amino)-1H-pyrazol-5-yl)-5-hydroxyoctahydropentalen-2-yl)-1-methyl-1H-imidazole-5-carboxamide] and `CC(O)c1cc(C2(O)CC3CC(c4ncn(C)c4C(=O)Nc4ccc(F)c(Cl)c4)CC3C2)n(C)n1` (stereo not shown) [Example 109, N-(3-Chloro-4-fluorophenyl)-4-(5-hydroxy-5-(3-(1-hydroxyethyl)-1-methyl-1H-pyrazol-5-yl)octahydropentalen-2-yl)-1-methyl-1H-imidazole-5-carboxamide] cannot be ordered by EC50: under 0.01 µM for the first, under 0.01 µM for the second.

`Cn1cnc(C2CC3CC(O)(c4cccc(F)c4)CC3C2)c1C(=O)Nc1ccc(F)c(Cl)c1` (stereo not shown) [Example 6, N-(3-Chloro-4-fluorophenyl)-4-(5-(3-fluorophenyl)-5-hydroxyoctahydropentalen-2-yl)-1-methyl-1H-imidazole-5-carboxamide] and `Cn1cnc(C2CC3CC(O)(c4cnn(C)c4C(F)F)CC3C2)c1C(=O)Nc1ccc(F)c(Cl)c1` (stereo not shown) [Example 147, N-(3-Chloro-4-fluorophenyl)-4-(5-(5-(difluoromethyl)-1-methyl-1H-pyrazol-4-yl)-5-hydroxyoctahydropentalen-2-yl)-1-methyl-1H-imidazole-5-carboxamide] cannot be ordered by EC50: under 0.01 µM for the first, under 0.01 µM for the second.

`CC(=O)NC(C)c1nn(C)cc1C1(O)CC2CC(c3ncn(C)c3C(=O)Nc3ccc(F)c(Cl)c3)CC2C1` (stereo not shown) [Example 185, 4-(5-(3-(1-Acetamidoethyl)-1-methyl-1H-pyrazol-4-yl)-5-hydroxyoctahydropentalen-2-yl)-N-(3-chloro-4-fluorophenyl)-1-methyl-1H-imidazole-5-carboxamide] and `CC(O)c1nn(C)cc1C1(O)CC2CC(c3ncn(C)c3C(=O)Nc3ccc(F)c(Cl)c3)CC2C1` (stereo not shown) [Example 186, N-(3-Chloro-4-fluorophenyl)-4-(5-hydroxy-5-(3-(1-hydroxyethyl)-1-methyl-1H-pyrazol-4-yl)octahydropentalen-2-yl)-1-methyl-1H-imidazole-5-carboxamide] cannot be ordered by EC50: under 0.01 µM for the first, under 0.01 µM for the second.

`Cn1cnc(C2CC3CC(O)(Cn4ccc(C(C)(C)C)n4)CC3C2)c1C(=O)Nc1ccc(F)c(Cl)c1` (stereo not shown) [Example 97, 4-(5-((3-(tert-butyl)-1H-pyrazol-1-yl)methyl)-5-hydroxyoctahydropentalen-2-yl)-N-(3-chloro-4-fluorophenyl)-1-methyl-1H-imidazole-5-carboxamide] and `Cn1cc(C2(O)CC3CC(c4ncn(C)c4C(=O)Nc4ccc(F)c(Cl)c4)CC3C2)c(C(F)F)n1` (stereo not shown) [Example 132, N-(3-chloro-4-fluorophenyl)-4-(5-(3-(difluoromethyl)-1-methyl-1H-pyrazol-4-yl)-5-hydroxyoctahydropentalen-2-yl)-1-methyl-1H-imidazole-5-carboxamide] cannot be ordered by EC50: under 0.01 µM for the first, under 0.01 µM for the second.

From US12655130B2 (ASSEMBLY BIOSCIENCES, INC., priority 2020, dated 2026)
